Experimental data reported in US20250302845A1, “SELECTIVE DOPAMINE INCREASE” (SOBRERA PHARMA AB, priority 2022, published 2025).
Entries after “also recorded” stand apart in the source; their conditions may differ.

Assays:
Set-up in all cases: species or system Wistar Han rat
[1] = system: dopamine (DA) in the dorsomedial striatum (DMS); experiment: In vivo microdialysis of dopamine in dorsomedial striatum (Example 1)
Procedure: (§1) 95 adult male Wistar Han rats (Envigo, Horst, Netherlands) were used in all experiments, weighing 280 to 350 g at the time of surgery (corresponding to approximately 9-10 weeks of age). The animals were housed in groups of five per cage (55×35×20 cm) at constant room temperature (22° C.), relative humidity (65%), and regular dark-light conditions (lights on at 7 AM and off at 7 PM). […] The animals were allowed to acclimate to the animal facilities for at least one week before surgery. This study was approved by the Ethics Committee for Animal Experiments, Gothenburg, Sweden and conducted according to national laws and guidelines for the care and use of laboratory animals.
(§2) Nicotine ((−)-nicotine hydrogen tartrate salt, Sigma, Stockholm, Sweden), 95% ethanol (Kemetyl AB, Stockholm, Sweden), varenicline (6,7,8,9-tetrahydro-6,10-methano-6H-pyrazino[2,3-h][3]benzazepine tartrate; provided by Pfizer Global Research and Development) and N-methyl-N-[(3R)-3-phenyl-3-[4-(trifluoromethyl) phenoxy]propyl]-glycine (Org 24598) (Tocris, Bristol, United Kingdom) were dissolved in physiological saline solution (0.9% NaCl) and administered subcutaneous (nicotine and varenicline) or intraperitoneal (ethanol and Org 24598) at a volume of 2 ml/kg (nicotine and varenicline), 5 ml/kg for EtOH and 4 ml/kg for Org 24598. The pH of the nicotine solution was neutralized with bicarbonate to approximately 7.2-7.4.
(§3) The microdialysis experiments were performed as previously described (Clarke, et al., 2014, Increase in nucleus accumbens dopamine levels following local ethanol administration is not mediated by acetaldehyde, Alcohol Alcohol 49, 498-504; Danielsson et al., 2021, Differential dopamine release by psychosis-generating and non-psychosis-generating addictive substances in the nucleus accumbens and dorsomedial striatum, Transl Psychiatry 11, 472). Animals were anaesthetized with isoflurane before being mounted into a stereotaxic instrument (David Kopf Instruments, AgnTho's, Stockholm, Sweden). The animals were equipped with either a standard in-house made single probe placed in the nAc (A/P +1.85, M/L −1.2, D/V −7.8) or the DMS (A/P+1.2, M/L −1.4, D/V −5.5) (Paxinos, 2007, The rat brain in stereotaxic coordinates. Amsterdam u.a.: Elsevier, Academic Press, Amsterdam), or a custom-made dual microdialysis probe (FIG. 1), which permits simultaneous sampling from both the nAc and DMS. Two additional holes were drilled in the skull in order to allow anchoring screws to be fastened, and the probe and screws were set in place using Harvard cement (DAB Dental AB, Stockholm, Sweden). The animals were then placed in single housing cages and allowed to recover for 48 h prior to the microdialysis experiment.
On the day of the experiment, the animals were connected to a microperfusion pump (U-864 Syringe Pump, AgnTho's, Sweden) via a swivel, which allowed the animals to move around the cage freely. […]
(§4) Microdialysis samples were analyzed as previously described for DA (Clarke, et al., 2014, Increase in nucleus accumbens dopamine levels following local ethanol administration is not mediated by acetaldehyde, Alcohol Alcohol 49, 498-504). In brief, DA content was analyzed using high performance liquid chromatography (HPLC) with electrochemical detection, using an external standard containing 3.25 fmol/μl of DA to identify DA peaks and quantify DA content. The chromatograms were analyzed using the software Thermo Scientific Chromelion Chromatography System (CDS) Chromelion 7.

[2] = system: dopamine (DA) in the nucleus accumbens (nAc); experiment: In vivo microdialysis of dopamine in nucleus accumbens (Example 1); details: for DA effect nAc vs DMS (brain region comparison over time): dual probe, Org 24598 9 mg/kg, varenicline 1.5 mg/kg
Procedure: as §1, §2, §3
On the day of the experiment, the animals were connected to a microperfusion pump (U-864 Syringe Pump, AgnTho's, Sweden) via a swivel, which allowed the animals to move around the cage freely. During the entire experiment, the probes were perfused with Ringer solution at a rate of 2 μl/min, and dialysate samples were collected every 20 min. Baseline sampling commenced after a 2-hour period, during which a balanced fluid exchange was established. Once at least three consecutive stable DA values were obtained (±10%), pharmacological treatment was administered, followed by a total of 180 minutes of sampling.
as §4

[3] = system: dopamine (DA) in the dorsomedial striatum (DMS); experiment: In vivo microdialysis of dopamine in dorsomedial striatum (Example 2); details: 12 mg/kg i.p., dual probe, same Wistar rat, FIG. 5
Procedure: (§5) Adult male Wistar Han rats (Envigo, Horst, Netherlands) were used, weighing approximately 320 g at the time of surgery (corresponding to approximately 9-10 weeks of age). The animals were housed in groups of five per cage (55×35×20 cm) at constant room temperature (22° C.), relative humidity (65%), and regular dark-light conditions (lights on at 7 AM and off at 7 PM). All animals had ad libitum access to standard rat feed (Harlan Teklad, Envigo, Europe) and tap water. The animals were allowed to acclimate to the animal facilities for at least one week before surgery. This study was approved by the Ethics Committee for Animal Experiments, Gothenburg, Sweden and conducted according to national laws and guidelines for the care and use of laboratory animals.
(§6) The microdialysis experiments were performed as previously described (Clarke et al., 2014; Danielsson et al., 2021). […]
as §4, with “(Clarke” for “(Clarke,”, “2014).” for “2014, Increase in nucleus accumbens dopamine levels following local ethanol administration is not mediated by acetaldehyde, Alcohol Alcohol 49, 498-504).”

[4] = system: dopamine (DA) in the nucleus accumbens (nAc); experiment: In vivo microdialysis of dopamine in nucleus accumbens (Example 2)
Procedure: as §5, §6
as §4, with “(Clarke” for “(Clarke,”, “2014).” for “2014, Increase in nucleus accumbens dopamine levels following local ethanol administration is not mediated by acetaldehyde, Alcohol Alcohol 49, 498-504).”

[5] = single probe microdialysis, t=0-180 min, EtOH 2.5 g/kg intraperitoneal, nicotine 0.36 mg/kg subcutaneous, alone or combined
[6] = single probe microdialysis, t=0-180 min, EtOH 2.5 g/kg intraperitoneal, nicotine 0.36 mg/kg subcutaneous, alone or combined, listed as ethanol
[7] = dual probe microdialysis, 0-180 min, Org 24598 9 mg/kg intraperitoneal, varenicline 1.5 mg/kg subcutaneous, alone or combined
[8] = two-way ANOVA, 0-180 min, alone or combined

In the case of `CN1CCCC1c1cccnc1.O=C(O)C(O)C(O)C(=O)O` (single isomer, unassigned; (-)) [nicotine, (−)-nicotine hydrogen tartrate salt], the “effect on DMS DA vs vehicle (AUC)” value ([1]; rat, in vivo) is reported as “elevated DA significantly”, the “DA elevation nAc vs DMS (brain region comparison over time)” value ([2]; rat, in vivo) is reported as “no effect by brain region on the DA elevation” and the “effect on nAc DA vs vehicle (AUC)” value ([2]; rat, in vivo) is reported as “significant and substantial increase in accumbal DA”.

In the case of `CCO` [EtOH, ethanol], the “effect on DMS DA vs vehicle (AUC)” value [1, 5] is reported as “significantly increased DA over time”, the “effect on DMS DA vs vehicle (AUC)” value [1, 6] is reported as “elevated DA significantly” and the “effect on nAc DA vs vehicle (AUC)” value [2, 5] is reported as “transient increase in DA”. The “effect on nAc DA vs vehicle (AUC)” value [2, 6] was “not statistically significant” and the “DA elevation nAc vs DMS (brain region comparison over time)” value ([2]; two-way ANOVA, t=0-180 min, EtOH 2.5 g/kg, nicotine 0.36 mg/kg, alone or combined) was “did not produce statistically different DA elevations in the nAc and the DMS”.

With `CN(CC[C@@H](Oc1ccc(C(F)(F)F)cc1)c1ccccc1)CC(=O)O` [Org 24598, N-methyl-N-[(3R)-3-phenyl-3-[4-(trifluoromethyl)phenoxy]propyl]-glycine] the “effect on DMS DA vs vehicle (AUC)” value [1, 7] was “minor DA increase”, the “effect on nAc DA vs vehicle (AUC)” value [2, 7] was “no significant effect; also recorded: minor DA increase” and the “DA effect nAc vs DMS (brain region comparison over time)” value [2, 8] was “did not differ between the two areas”.

In the case of `COc1cc(C(=O)NCC2(N(C)C)CCCC2)cc(OC)c1OCc1ccccc1.Cl` [Org 25543], the “effect on dopamine levels in DMS” value [3] is reported as “reduction in dopamine levels in DMS”, the “effect on dopamine levels in nAc” value ([4]; 12 mg/kg i.p., dual probe, same Wistar rat, FIG. 5) is reported as “increase in dopamine levels in nAc” and the “effect on dopamine in the nAc” value ([4]; 4 or 8 mg/kg i.p., systemic administration, FIG. 4) is reported as “dose-dependent increase of dopamine in the nAc”.

In the case of `c1cnc2cc3c(cc2n1)[C@@H]1CNC[C@H]3C1` [varenicline, 7,8,9,10-tetrahydro-6,10-methano-6H-pyrazino[2,3-h][3]benzazepine], the “effect on DMS DA vs vehicle (AUC)” value [1, 7] is reported as “small but significant elevation of DA over time” and the “DA effect nAc vs DMS (brain region comparison over time)” value [2, 8] is reported as “did also not differ between brain regions”.
